{"source": "patent US20250368682A1", "about": "“NOVEL POLYPEPTIDE COMPOSITION FOR INTRACELLULAR TRANSFECTION” (AZOTHBIO INC., priority 2022, published 2025)", "format_in_all_cases": "cell-based", "key": {"Jurkat T cells [1]": {"system": "Jurkat T cells", "experiment": "pEGFP-N3 plasmid DNA delivery, GFP expression by immunoblotting", "settings": "for GFP expression depending on copy number of NLS: 2, 3 or 4 copies of NLS after 10 leucines; for plasmid DNA delivery efficiency depending on leucine length: 10 or 11 leucines with 2×NLS, same experiment as Example 1-1", "method": "Specific sequences thereof are shown in Table 2 below (Peptides 1 to 10). Each of the above peptides at a concentration of 4 μM was mixed with 2 μg of pEGFP-N3 plasmid for 30 minutes in a CO2 incubator at 37° C. After transfection of the plasmids into Jurkat T cells for 30 minutes, the expression of GFP was analyzed by immunoblotting after 24 hours (FIG. 1).\nPeptides containing 10 or 11 leucine amino acids and 2×NLS linked thereto were prepared (Peptides 1 and 11), and based on these peptides, the effect of the number of leucine amino acids on the transmission level was further determined. Each of the above peptides was subjected to the same experiment as in Example 1-1, and then the expression of GFP was analyzed by immunoblotting (FIG. 2).\nPeptides were prepared by varying the copy number of NLS, located following the 10 leucine amino acid sequences, to 2, 3, or 4, and specific sequences thereof are shown in Table 2 below (Peptides 1, 12, and 13). For each peptide, the change in GFP expression depending on the copy number of NLS was confirmed by immunoblotting (FIG. 3).\nAccordingly, the copy number of NLS was set to 2, and a peptide (L10-2×NLS) in which the NLS amino acid sequence was located at the C-terminus, following leucine, and a peptide (2×NLS-L10) in which the NLS amino acid sequence was located at the N-terminus, preceding leucine, were prepared. Each of the above peptides (Peptide 1 and 14) was mixed with pEGFP-N3 and transfected into Jurkat T cells. Then, the expression changes of GFP were compared.\nL10-2×NLS at different concentrations (2, 3, 4, 5, or 6 μM) was mixed with 2 μg of pEGFP-N3 and transfected into Jurkat T cells. The expression of GFP was then confirmed by immunoblotting (FIG. 5).\nNext, pEGFP-N3 at different concentrations (0, 0.25, 0.5, 1, 2, 4, 5, or 6 μg) was mixed with 4 μM of L10-2×NLS and transfected into Jurkat T cells. The expression of GFP was then confirmed by immunoblotting (FIG. 6).\nFirst, 4 μM L10-2×NLS and 2 μg pEGFP-N3 were mixed at 4, 16, 25, 37, or 42° C. for 30 minutes and transfected into Jurkat T cells for 30 minutes. […] (FIG. 7).\nThus, the temperature was set to 37° C., and 4 μM L10-2×NLS and 2 μg pEGFP-N3 were mixed for different times (10, 20, 30, 40, 50, or 60 minutes).\nFinally, in an experiment as to the buffer used for the mixing, 4 μM of L10-2×NLS and 2 μg of pEGFP-N3 were mixed with Opti-MEM, DPBS, or Serum free RPMI-1640 (SF) buffer, respectively.\nL10-2×NLS (4 μM) and pEGFP-N3 (2 μg) were mixed according to the above optimized conditions and transfected into Jurkat T cells for 0.5, 1, 2, 3, 4, or 5 hours to compare the changes in GFP expression over time (FIG. 10)."}, "Jurkat T cells [2]": {"system": "Jurkat T cells", "experiment": "Fluorescein-labeled plasmid DNA delivery efficiency by FACS", "settings": "after 0.5 hours; 2 μg fluorescein-labeled plasmid DNA, 4 μM L10-2×NLS", "method": "Fluorescein-labeled plasmid DNA (Takara) (2 μg) was mixed with L10-2×NLS (4 μM) and transfected into Jurkat T cells for 0.5, 1, 2, 3, 4, or 5 hours. Then, the delivery efficiency of the plasmid DNA into Jurkat T cells was analyzed using Novocyte FACS (Agilent) (FIG. 16)."}, "Jurkat T cells [3]": {"system": "Jurkat T cells", "experiment": "FITC-labeled IgG antibody delivery efficiency by FACS", "settings": "L10-2×NLS 4 μM or higher, 1 μg FITC-labeled IgG, 2 hours", "method": "FITC-labeled IgG (Thermofisher) (1 μg) was mixed with L10-2×NLS at different concentrations (0.5, 1, 2, 4, or 6 μM). Each mixture was treated with Jurkat T cells for 2 hours, and then the antibody delivery efficiency to cells was confirmed using Novocyte FACS (Agilent) (FIG. 21), and the presence of the corresponding antibodies in cells was observed using a fluorescence microscope (Leica) (FIG. 22)."}, "human primary T cells": {"system": "human primary T cells", "experiment": "CAR plasmid DNA delivery, CAR expression by immunoblotting with FLAG antibody", "settings": "4 μM L10-2×NLS, 2 μg FLAG-tagged CAR plasmid DNA, after 24 hours", "method": "L10-2×NLS (4 μM) and FLAG-tagged CAR plasmid DNA (2 μg) were mixed and transfected into human primary T cells. After 24 hours, CAR expression in the human primary CD8+ T cells was confirmed by immunoblotting using FLAG antibody (FIG. 19)."}, "Jurkat T cells [4]": {"system": "Jurkat T cells", "experiment": "Cell morphology and viability (MTT assay) after transfection", "settings": "4 μM L10-2×NLS, 2 μg pEGFP-N3, morphology after 24 hours", "method": "L10-2×NLS (4 μM) and pEGFP-N3 (2 μg) were mixed and transfected into Jurkat T cells, and changes in cell morphology after 24 hours were observed (FIG. 14). The cell viability after transfection was analyzed using MTT assay (FIG. 15)."}, "Jurkat T cells [5]": {"system": "Jurkat T cells", "experiment": "Location of fluorescein-labeled plasmid DNA by fluorescence microscope (Hoechst 33342)", "excerpt": "Next, fluorescein-labeled plasmid DNA and L10-2×NLS were mixed and transfected into Jurkat T cells, followed by treatment with nucleus staining reagent Hoechst 33342 (ThermoFisher). The location of the plasmid DNA in Jurkat T cells was then confirmed using a fluorescence microscope (Leica) (FIG. 17), and the data were quantified and analyzed through graphical representation (FIG. 18)."}}, "data": [{"substance": "N′-LLLLLLLLLLPKKKRKVPKKKRKVPKKKRKV-C′ (Ac-LLLLLLLLLLPKKKRKVPKKKRKVPKKKRKV-NH2) [Peptide 12]", "values": [{"measurement": "GFP expression depending on copy number of NLS", "setting": "Jurkat T cells [1]", "result": "maintained above a certain level"}]}, {"substance": "N′-LLLLLLLLLLLPKKKRKVPKKKRKV-C′ (Ac-LLLLLLLLLLLPKKKRKVPKKKRKV-NH2) [Peptide 11]", "values": [{"measurement": "plasmid DNA delivery efficiency depending on leucine length", "setting": "Jurkat T cells [1]", "result": "a certain level of high efficiency was maintained"}]}, {"substance": "Ac-LLLLLLLLLLPKKKRKVPKKKRKV-NH2 [L10-2×NLS]", "values": [{"measurement": "transfection level compared to Lipofectamine", "setting": "Jurkat T cells [1]; 4 μM peptide, 2 μg pEGFP-N3, immunoblot after 24 hours", "result": "significantly higher level compared to Lipofectamine®"}, {"measurement": "GFP expression depending on hydrophobic amino acid type", "setting": "Jurkat T cells [1]; 4 μM peptide, 2 μg pEGFP-N3, mixed 30 min at 37° C., transfection 30 min, immunoblot after 24 hours, among Peptides 1 to 10", "result": "highest GFP expression"}, {"measurement": "GFP expression depending on copy number of NLS", "setting": "Jurkat T cells [1]", "result": "highest expression of GFP"}, {"measurement": "plasmid DNA delivery efficiency depending on leucine length", "setting": "Jurkat T cells [1]", "result": "highest efficiency"}, {"measurement": "transformation efficiency depending on N-terminal/C-terminal location of NLS", "setting": "Jurkat T cells [1]; L10-2×NLS compared with 2×NLS-L10", "result": "high efficiency"}, {"measurement": "GFP expression depending on mixing buffer", "setting": "Jurkat T cells [1]; Opti-MEM, DPBS or Serum free RPMI-1640", "result": "transfection levels were maintained"}, {"measurement": "GFP expression efficiency depending on pEGFP-N3 amount", "setting": "Jurkat T cells [1]; at 2 μg pEGFP-N3 (tested 0-6 μg), 4 μM L10-2×NLS", "result": "highest"}, {"measurement": "GFP expression efficiency depending on L10-2×NLS concentration", "setting": "Jurkat T cells [1]; at 4 μM (tested 2, 3, 4, 5, 6 μM), 2 μg pEGFP-N3", "result": "highest expression efficiency of GFP"}, {"measurement": "GFP expression depending on mixing temperature", "setting": "Jurkat T cells [1]; mixing at 37° C. (tested 4, 16, 25, 37, 42° C.) for 30 minutes", "result": "highest expression of GFP"}, {"measurement": "GFP expression depending on mixing time", "setting": "Jurkat T cells [1]; mixing time 30 minutes (tested 10-60 minutes), 37° C.", "result": "highest expression level"}, {"measurement": "GFP expression depending on transfection time", "setting": "Jurkat T cells [1]; transfection for 0.5 or 1 hour (tested 0.5-5 hours)", "result": "sufficient to deliver plasmid DNA"}, {"measurement": "plasmid DNA delivery efficiency", "setting": "Jurkat T cells [2]", "result": "about 90%"}, {"measurement": "antibody delivery efficiency", "setting": "Jurkat T cells [3]", "result": "approximately 90%"}, {"measurement": "CAR expression in human primary CD8+ T cells", "setting": "human primary T cells", "result": "confirmed"}, {"measurement": "cell damage or cell death after transfection", "setting": "Jurkat T cells [4]", "result": "did not cause any damage or cell death"}, {"measurement": "plasmid DNA delivery to cells", "setting": "Jurkat T cells [5]; 1 hour after transfection", "result": "delivered to the majority of cells"}, {"measurement": "plasmid DNA found in the nucleus, efficiency", "setting": "Jurkat T cells [5]; at 4 hours", "result": "approximately 40%"}]}, {"substance": "N′-LLLLLLLLLLPKKKRKVPKKKRKVPKKKRKVPKKKRKV-C′ (Ac-LLLLLLLLLLPKKKRKVPKKKRKVPKKKRKVPKKKRKV-NH2) [Peptide 13]", "values": [{"measurement": "GFP expression depending on copy number of NLS", "setting": "Jurkat T cells [1]", "result": "maintained above a certain level"}]}]}
